# “Also recorded” adds a separate entry of the source.
# Columns and labels:
# physchem [1] = format: physicochemical; details: pH 7.4, aqueous buffer, kinetic from dmso stock
# Protocol: Kinetic aqueous solubility was determined at NCATS using Pion’s patented µSOL assay as described previously ([Sun et al., 2019]).
# in vitro = in vitro ADME, human; details: Sprague-Dawley (rat), CD-1 (mouse), Beagle (dog), monkey
# Protocol: Plasma protein binding experiments were carried out in mixed-gender human plasma, male Sprague-Dawley rat plasma, male CD-1 plasma, male Beagle dog plasma, and male Cynomolgus monkey plasma (BioIVT) using a Pierce Rapid Equilibration Dialysis (RED) device. […] Blank phosphate-buffered saline (PBS) (500 μL) was added to each corresponding receiver chamber. After 4 h of incubation (with shaking at 37°C), both sides were aliquoted, and matrix was normalized. Samples were centrifuged at 1000 g for 10 min after adding two volumes of ACN with IS. Supernatants were diluted 1:1 with water and analyzed with LC-MS/MS.
# Plasma Protein binding was calculated as follows:
# % Bound = [(PARR in Donor–PARR in Receiver)/(PARR in Donor)] × 100.
# PARR = peak area response ratio to internal standard, including applicable dilution factors.
# CNT1 = target: T1, CNT1 (Homo sapiens, UniProt O00337); assay: Nucleoside transporter uptake, CNT1-transfected MDCK cells; format: in vitro ADME
# T1 construct: expressed in transfected cells; host or cells: MDCK-II
# T1 sequence (O00337 1-649): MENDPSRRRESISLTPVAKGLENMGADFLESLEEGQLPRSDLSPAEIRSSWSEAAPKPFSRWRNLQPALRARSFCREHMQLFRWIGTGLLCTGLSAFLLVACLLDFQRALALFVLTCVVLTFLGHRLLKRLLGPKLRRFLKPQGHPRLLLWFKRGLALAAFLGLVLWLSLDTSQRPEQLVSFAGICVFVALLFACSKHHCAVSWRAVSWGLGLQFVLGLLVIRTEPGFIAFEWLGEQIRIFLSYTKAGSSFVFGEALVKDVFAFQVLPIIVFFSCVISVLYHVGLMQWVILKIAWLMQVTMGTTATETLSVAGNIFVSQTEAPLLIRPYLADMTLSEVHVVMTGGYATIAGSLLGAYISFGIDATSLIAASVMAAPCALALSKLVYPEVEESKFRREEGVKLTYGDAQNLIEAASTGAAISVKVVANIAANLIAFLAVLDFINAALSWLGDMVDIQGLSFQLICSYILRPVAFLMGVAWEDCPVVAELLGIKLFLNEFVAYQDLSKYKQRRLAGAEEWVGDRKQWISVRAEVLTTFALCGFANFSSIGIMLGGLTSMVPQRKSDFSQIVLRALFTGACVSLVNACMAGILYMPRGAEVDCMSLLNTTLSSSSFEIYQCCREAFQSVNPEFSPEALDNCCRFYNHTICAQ
# Source text: (§1) Each condition was run in triplicate.
# CNT3 = target: T2, CNT3 (Homo sapiens, UniProt Q9HAS3); assay: Nucleoside transporter uptake, CNT3-transfected MDCK cells; format: in vitro ADME
# T2 construct: expressed in transfected cells; host or cells: MDCK-II
# Source text: as §1
# ENT2 = target: T3, ENT2 (Homo sapiens, UniProt Q14542); assay: Nucleoside transporter uptake, ENT2-transfected MDCK cells; format: in vitro ADME
# T3 construct: expressed in transfected cells; host or cells: MDCK-II
# Source text: as §1
# [2] = Pharmacokinetics in C57BL/6 mice; format: in vivo, mouse; details: male
# Protocol: (§2) Adult male C57BL/6 mice and Sprague Dawley rats were purchased from Charles River Laboratory (Wilmington, MA). PK studies for mice and rats were conducted at NIH animal facility (Bethesda, MD). In-life dog and monkey PK studies were conducted at Absorption System (San Diego, CA) and Frontage Labs (Concord, OH), respectively. Dogs and monkeys were fasted overnight prior to dose administrations. All experimental procedures were reviewed and approved by the Animal Care and Use Committee (ACUC) of the NIH Division of Veterinary Resources (DVR) or CRO labs for in-life studies.
# Male C57BL6 mice (n = 3 per time point, 24–40 g) were dosed at 5 mg/kg IV or 10 mg/kg oral gavage. The dosing volume was 3 mL/kg for IV and 10 ml/kg for PO. All dosing solutions were freshly prepared on the day of administration. Blood samples were collected over 24 h.
# (§3) Blood samples from all groups and species were collected in K2EDTA tubes and stored on wet ice pending processing. Blood was centrifuged at 2200 g at 4°C for 10 min to isolate plasma. All samples were stored at -80°C until analysis.
# (§4) Phoenix WinNonlin, version 8.1 (Certara, St. Louis, MO), was used to perform PK analysis with the non-compartmental approach (Models 200 and 201 for PO and IV datasets). The area under the plasma concentration vs. time curve (AUC) was calculated using the linear trapezoidal method. The terminal rate constant (λ) was obtained from the slope of at least three data points of the apparent terminal phase of the log-linear plasma concentration vs. time curve when available. AUC0–∞ was estimated as the sum of the AUC0–t (where t is the time of the last measurable concentration) and Ct/λ. The apparent terminal half-life (t½) was calculated as 0.693/λ. Bioavailability (F) was calculated using ratios of dose normalized AUC (AUC/Dose) obtained from PO and IV PK studies.
# [3] = Pharmacokinetics in Cynomolgus monkeys; format: in vivo; details: male, cynomolgus monkey
# Protocol: as §2
# The dosing volumes were 2 mL/kg for IV and 5 mL/kg for PO. Blood samples were obtained from each monkey up to 48 h after IV and PO administration. Urine samples were collected over 48 h for IV group.
# as §3, §4
# [4] = test system: EpiAirway human tracheobronchial epithelial tissues
# physchem [5] = details: for solubility thermodynamic: thermodynamic from solid
# [6] = 7-days dose range finding study in dogs; details: oral, 2000 mg/kg/day
# [7] = C57BL/6, mouse, in vivo, iv, 5 mg/kg
# [8] = C57BL/6, mouse, in vivo, po, 10 mg/kg
# T3 sequence (Q14542 whole entry): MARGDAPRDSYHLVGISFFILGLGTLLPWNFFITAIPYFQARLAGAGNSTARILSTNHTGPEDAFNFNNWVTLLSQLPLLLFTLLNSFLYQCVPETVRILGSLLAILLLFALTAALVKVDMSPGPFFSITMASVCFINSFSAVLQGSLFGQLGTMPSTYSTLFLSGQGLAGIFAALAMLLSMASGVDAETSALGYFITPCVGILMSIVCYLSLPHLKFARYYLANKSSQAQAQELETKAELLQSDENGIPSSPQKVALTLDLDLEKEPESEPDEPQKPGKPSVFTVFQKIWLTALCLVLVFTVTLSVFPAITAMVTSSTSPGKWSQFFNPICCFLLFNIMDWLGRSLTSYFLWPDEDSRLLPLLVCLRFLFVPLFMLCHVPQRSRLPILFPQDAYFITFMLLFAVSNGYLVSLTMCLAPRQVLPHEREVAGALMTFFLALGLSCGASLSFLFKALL
# T2 sequence (Q9HAS3 whole entry): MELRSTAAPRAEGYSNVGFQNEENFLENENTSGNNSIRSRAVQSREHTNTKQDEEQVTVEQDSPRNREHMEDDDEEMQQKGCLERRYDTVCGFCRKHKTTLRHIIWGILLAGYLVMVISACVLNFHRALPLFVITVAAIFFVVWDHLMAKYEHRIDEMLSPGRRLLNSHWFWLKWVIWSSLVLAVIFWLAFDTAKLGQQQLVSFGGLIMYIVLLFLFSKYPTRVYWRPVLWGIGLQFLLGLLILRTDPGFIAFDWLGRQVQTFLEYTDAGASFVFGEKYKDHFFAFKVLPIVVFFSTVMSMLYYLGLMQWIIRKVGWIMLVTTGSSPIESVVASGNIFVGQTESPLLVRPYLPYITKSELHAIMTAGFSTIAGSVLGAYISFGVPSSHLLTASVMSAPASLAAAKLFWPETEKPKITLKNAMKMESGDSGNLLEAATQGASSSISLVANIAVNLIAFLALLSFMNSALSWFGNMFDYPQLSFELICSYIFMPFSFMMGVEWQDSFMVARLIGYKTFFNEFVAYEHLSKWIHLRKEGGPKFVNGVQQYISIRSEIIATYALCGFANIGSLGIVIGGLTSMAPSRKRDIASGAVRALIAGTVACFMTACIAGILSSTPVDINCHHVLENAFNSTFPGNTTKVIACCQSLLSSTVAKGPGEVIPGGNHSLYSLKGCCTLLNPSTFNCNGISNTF
smiles,measurement,setting,value
N#C[C@@]1(c2ccc3c(N)ncnn23)O[C@H](CO)[C@@H](O)[C@H]1O [GS-441524],solubility kinetic,physchem [1],42 µg/mL
same,"fraction unbound at 4 h, 10 µM","in vitro; both (human, mixed-gender), male (animals), human",0.62 to 0.78
same,"fraction unbound at 4 h, 10 µM","in vitro; male, plasma",0.62 to 0.64
same,Substrate of CNT1,CNT1,not a substrate; also recorded: unlikely to be a substrate
same,Transporter uptake rate,"CNT1; CNT1, 10 μM, LOQ = 0.222 pmol/min/cm^2",BLQ
same,Difference in uptake compared to control cells,CNT1; CNT1-transfected cells,less than 2 fold
same,Substrate of CNT3,CNT3,substrate
same,Inhibition of uptake by reference inhibitor,"CNT3; CNT3-transfected cells, reference inhibitor adenosine, 30 µM GS-441524",98.9%
same,Substrate of ENT2,ENT2,substrate
same,Inhibition of uptake by reference inhibitor,"ENT2; ENT2-transfected cells, 100 µM adenosine",did not inhibit; also recorded: no inhibition was observed
same,Vd,[2]; [7],2.4 L/kg
same,clearance,[2]; [7],26 mL/min/kg
same,AUC(0-inf),[2]; [8],2540 ng·h/mL
same,Cmax,[2]; [8],582 ng/mL
same,Tmax,[2]; [8],1.5 h
same,bioavailability,[2]; [8],39%
same,half-life,"[2]; C57BL/6, plasma, Mouse, PO 10 mg/kg",3.9 h
same,Vd,"[3]; in vivo, iv, 2 mg/kg",1.1 ± 0.04 L/kg
same,clearance,"[3]; in vivo, iv, 2 mg/kg",9.5 ± 1 mL/min/kg
same,AUC(0-inf),"[3]; in vivo, po, 5 mg/kg",734 ± 138 ng·h/mL
same,Cmax,"[3]; in vivo, po, 5 mg/kg",59.4 ± 18.1 ng/mL
same,Tmax,"[3]; in vivo, po, 5 mg/kg",2 h
same,bioavailability,"[3]; in vivo, po, 5 mg/kg",8.3 ± 1.6%
same,half-life,"[3]; plasma, Monkey, PO 5 mg/kg",7.7 ± 1.4 h
same,Cytotoxicity,[4],did not exhibit any cytotoxicity
same,solubility thermodynamic,"physchem [5]; pH 1.6, simulated gastric fluid",> 1000 µg/mL
same,solubility thermodynamic,"physchem [5]; pH 2, aqueous buffer",> 1000 µg/mL
same,solubility,physchem [5]; pH 5,35 to 52 µg/mL
same,solubility thermodynamic,"physchem [5]; pH 5, aqueous buffer",52 µg/mL
same,solubility thermodynamic,"physchem [5]; pH 5.8, fessif",52 µg/mL
same,solubility thermodynamic,"physchem [5]; pH 6.5, fassif",35 µg/mL
same,solubility thermodynamic,"physchem [5]; pH 7.4, aqueous buffer",47 µg/mL
same,Tolerability at maximum feasible dose,[6],well tolerated

# Source: article PMC9424906 (Frontiers in Pharmacology, 2022)
